Results as given in patent US20230151003A1, “COMPOUNDS AND METHODS OF USE” (Exelixis, Inc., priority 2020, published 2023).
pIC50: −log10 of the molar value.

How the values were obtained:
AXL = biological target: T1, AXL (Homo sapiens, UniProt P30530); assay: AXL autophosphorylation ELISA in A-172 cells; type: cell-based; settings: Table 3 Cellular Activities, Gas6-stimulated, phospho-AXL ELISA
T1 construct: endogenous in cells; host or cells: A-172 glioblastoma cells (ATCC #CRL-1620)
T1 sequence (P30530 26-894): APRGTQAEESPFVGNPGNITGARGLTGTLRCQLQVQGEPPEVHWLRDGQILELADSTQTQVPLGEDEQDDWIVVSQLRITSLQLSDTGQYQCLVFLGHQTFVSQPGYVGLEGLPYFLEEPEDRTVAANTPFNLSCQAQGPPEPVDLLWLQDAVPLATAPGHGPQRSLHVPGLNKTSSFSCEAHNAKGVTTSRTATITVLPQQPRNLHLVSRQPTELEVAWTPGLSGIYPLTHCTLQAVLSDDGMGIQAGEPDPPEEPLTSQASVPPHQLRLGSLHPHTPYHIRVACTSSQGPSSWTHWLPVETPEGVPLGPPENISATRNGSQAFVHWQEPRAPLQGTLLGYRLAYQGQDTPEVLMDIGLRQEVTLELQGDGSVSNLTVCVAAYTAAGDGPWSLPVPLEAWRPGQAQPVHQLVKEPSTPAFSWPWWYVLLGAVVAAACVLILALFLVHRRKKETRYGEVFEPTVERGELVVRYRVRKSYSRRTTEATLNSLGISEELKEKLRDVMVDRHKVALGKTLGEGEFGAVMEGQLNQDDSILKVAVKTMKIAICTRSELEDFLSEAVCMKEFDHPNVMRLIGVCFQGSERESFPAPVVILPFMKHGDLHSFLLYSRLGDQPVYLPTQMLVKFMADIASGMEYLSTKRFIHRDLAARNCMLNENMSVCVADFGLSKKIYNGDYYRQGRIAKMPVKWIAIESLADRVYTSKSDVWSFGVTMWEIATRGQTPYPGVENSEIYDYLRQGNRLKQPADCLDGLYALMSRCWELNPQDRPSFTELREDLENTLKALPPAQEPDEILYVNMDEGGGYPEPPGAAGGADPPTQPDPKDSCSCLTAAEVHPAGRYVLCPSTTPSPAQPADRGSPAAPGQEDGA
Summary of the method: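 A-172 glioblastoma cells serum-starved 24 h, treated 1 h with compounds (8-point dose curve, 0.3% DMSO), then stimulated with 1 μg/mL Gas6 for 15 min. Lysate phospho-AXL quantified by ELISA against a standard; IC50 from 4-parameter logistic fit, normalised to DMSO and reference-inhibitor controls.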

Met = Met (Homo sapiens, UniProt P08581); assay: Met autophosphorylation ELISA in PC-3 cells; type: cell-based; design: endogenous in cells; host or cells: PC-3 prostate cancer cells (ATCC #CRL-1435); settings: Table 3 Cellular Activities, HGF-stimulated, phospho-Met ELISA, read-out: c-Met IC50
Summary of the method: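 Serum-starved (3 h) PC-3 cells pre-incubated 1 h with compound (8-point dose curve, 0.3% DMSO), then stimulated with 100 ng/mL recombinant human HGF for 10 min. Lysate phospho-Met (panTyr) measured by sandwich ELISA; IC50 from 4-parameter logistic fit, normalised to DMSO (100%) and reference-inhibitor (0%) controls.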

Chain of Met (P08581 25-1390): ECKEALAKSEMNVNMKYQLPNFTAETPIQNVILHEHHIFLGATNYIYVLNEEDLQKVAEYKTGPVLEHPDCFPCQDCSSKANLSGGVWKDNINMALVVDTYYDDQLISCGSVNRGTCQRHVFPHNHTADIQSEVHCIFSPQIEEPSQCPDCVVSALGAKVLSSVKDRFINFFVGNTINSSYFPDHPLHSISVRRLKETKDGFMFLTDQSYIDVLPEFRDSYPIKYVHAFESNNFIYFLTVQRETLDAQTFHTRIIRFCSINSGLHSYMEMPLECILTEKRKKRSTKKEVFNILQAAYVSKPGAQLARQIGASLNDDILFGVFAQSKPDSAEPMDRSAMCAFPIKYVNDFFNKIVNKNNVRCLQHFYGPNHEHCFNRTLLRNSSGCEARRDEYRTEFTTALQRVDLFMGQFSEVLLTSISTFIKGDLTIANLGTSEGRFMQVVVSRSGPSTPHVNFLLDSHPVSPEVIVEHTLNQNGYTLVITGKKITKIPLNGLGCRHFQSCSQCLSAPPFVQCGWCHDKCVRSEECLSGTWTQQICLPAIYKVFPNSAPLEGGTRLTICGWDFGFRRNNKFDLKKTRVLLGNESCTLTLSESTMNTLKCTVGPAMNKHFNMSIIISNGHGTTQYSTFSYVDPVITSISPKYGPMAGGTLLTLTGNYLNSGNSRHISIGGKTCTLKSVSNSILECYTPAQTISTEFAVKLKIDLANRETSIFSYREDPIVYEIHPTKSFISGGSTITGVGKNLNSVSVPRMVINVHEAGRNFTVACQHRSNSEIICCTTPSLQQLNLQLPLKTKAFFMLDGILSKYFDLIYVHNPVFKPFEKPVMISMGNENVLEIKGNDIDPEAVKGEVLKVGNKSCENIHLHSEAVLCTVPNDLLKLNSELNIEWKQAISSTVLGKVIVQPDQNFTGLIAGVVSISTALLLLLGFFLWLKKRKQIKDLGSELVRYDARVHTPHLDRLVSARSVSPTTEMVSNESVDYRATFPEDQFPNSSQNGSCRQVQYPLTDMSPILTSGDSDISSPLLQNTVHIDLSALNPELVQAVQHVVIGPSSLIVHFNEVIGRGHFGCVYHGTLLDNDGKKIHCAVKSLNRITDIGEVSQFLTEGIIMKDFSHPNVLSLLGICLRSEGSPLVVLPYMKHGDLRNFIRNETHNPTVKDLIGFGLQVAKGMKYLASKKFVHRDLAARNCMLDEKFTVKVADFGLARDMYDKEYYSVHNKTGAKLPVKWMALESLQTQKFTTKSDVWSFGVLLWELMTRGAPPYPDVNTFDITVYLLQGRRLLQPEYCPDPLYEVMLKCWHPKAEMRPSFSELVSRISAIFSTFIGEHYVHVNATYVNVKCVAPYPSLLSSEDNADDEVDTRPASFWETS

COCc1nc(C)c(-c2ccc(F)cn2)c(O)c1C(=O)Nc1ccc(Oc2ccnc3cc(OC)c(OC)nc23)c(F)c1 [Compound 214, N-[4-[(6,7-Dimethoxy-1,5-naphthyridin-4-yl)oxy]-3-fluorophenyl]-5-(5-fluoropyridin-2-yl)-4-hydroxy-2-(methoxymethyl)-6-methylpyridine-3-carboxamid]
pIC50 (AXL): ≥ 7.00
pIC50 (Met): ≥ 7.00

COc1cc2nccc(Oc3ccc(NC(=O)c4c(C)ncc(-c5ncc(F)cc5C)c4O)cc3F)c2nc1OC [Compound 200, N-[4-[(6,7-Dimethoxy-1,5-naphthyridin-4-yl)oxy]-3-fluorophenyl]-5-(5-fluoro-3-methylpyridin-2-yl)-4-hydroxy-2-methylpyridine-3-carboxamide]
pIC50 (AXL): ≥ 7.00
pIC50 (Met): ≥ 7.00

COc1cc2nccc(Oc3ccc(NC(=O)c4cc(C(C)=O)c(C)n(-c5ccc(F)cn5)c4=O)cc3F)c2nc1OC [Compound 59, 5-Acetyl-N-[4-[(6,7-dimethoxy-1,5-naphthyridin-4-yl)oxy]-3-fluorophenyl]-1-(5-fluoropyridin-2-yl)-6-methyl-2-oxopyridine-3-carboxamide]
pIC50 (AXL): ≥ 7.00
pIC50 (Met): ≥ 7.00

CCc1c(C(=O)Nc2ccc(Oc3ccnc4cc(OC)c(OC)nc34)c(F)c2)c(=O)c(-c2ccco2)c(C)n1C [Compound 324, N-[4-[(6,7-Dimethoxy-1,5-naphthyridin-4-yl)oxy]-3-fluorophenyl]-2-ethyl-5-(furan-2-yl)-1,6-dimethyl-4-oxopyridine-3-carboxamide]
pIC50 (AXL): ≥ 7.00
pIC50 (Met): ≥ 7.00

COc1cc2nccc(Oc3ccc(NC(=O)c4c(C)n(C)c(C)c(-c5coc6ccccc56)c4=O)cc3F)c2nc1OC [Compound 262, 5-(1-Benzofuran-3-yl)-N-[4-[(6,7-dimethoxy-1,5-naphthyridin-4-yl)oxy]-3-fluorophenyl]-1,2,6-trimethyl-4-oxopyridine-3-carboxamide]
pIC50 (AXL): ≥ 7.00
pIC50 (Met): 6.00 to 6.52

COc1cc2nccc(Oc3ccc(NC(=O)c4cccn(-c5ccncc5)c4=O)cc3F)c2nc1OC [Compound 229, N-[4-[(6,7-Dimethoxy-1,5-naphthyridin-4-yl)oxy]-3-fluorophenyl]-2-oxo-1-pyridin-4-ylpyridine-3-carboxamide]
pIC50 (AXL): ≥ 7.00
pIC50 (Met): ≥ 7.00

COc1cc2nccc(Oc3ccc(NC(=O)c4c5n(cc(-c6cccs6)c4=O)CCOC5)cc3)c2nc1OC [Compound 299, N-[4-[(6,7-Dimethoxy-1,5-naphthyridin-4-yl)oxy]phenyl]-8-oxo-7-thiophen-2-yl-3,4-dihydro-1H-pyrido[2,1-c][1,4]oxazine-9-carboxamide]
pIC50 (AXL): ≥ 7.00
pIC50 (Met): ≥ 7.00

COc1cc2nccc(Oc3ccc(NC(=O)c4ccc(C)n(-c5ccncc5)c4=O)cc3F)c2nc1OC [Compound 221, N-[4-[(6,7-Dimethoxy-1,5-naphthyridin-4-yl)oxy]-3-fluorophenyl]-6-methyl-2-oxo-1-pyridin-4-ylpyridine-3-carboxamid]
pIC50 (AXL): ≥ 7.00
pIC50 (Met): ≥ 7.00

COc1cc2nccc(Oc3ccc(NC(=O)c4c(C)n(C)c(C)c(-c5cc6ccccc6o5)c4=O)cc3F)c2nc1OC [Compound 261, 5-(1-Benzofuran-2-yl)-N-[4-[(6,7-dimethoxy-1,5-naphthyridin-4-yl)oxy]-3-fluorophenyl]-1,2,6-trimethyl-4-oxopyridine-3-carboxamide]
pIC50 (AXL): ≥ 7.00
pIC50 (Met): 6.00 to 6.52

COc1cc2nccc(Oc3ccc(NC(=O)c4cn(C)c(C)c(-c5ccc(F)cn5)c4=O)cc3)c2nc1OC [Compound 86, N-[4-[(6,7-Dimethoxy-1,5-naphthyridin-4-yl)oxy]phenyl]-5-(5-fluoropyridin-2-yl)-1,6-dimethyl-4-oxopyridine-3-carboxamide]
pIC50 (AXL): ≥ 7.00
pIC50 (Met): ≥ 7.00

COCCOc1cc2nccc(Oc3ccc(NC(=O)c4cnc(C)c(-c5ccco5)c4O)cc3F)c2nc1OC [Compound 260, N-[3-Fluoro-4-[[6-methoxy-7-(2-methoxyethoxy)-1,5-naphthyridin-4-yl]oxy]phenyl]-5-(furan-2-yl)-4-hydroxy-6-methylpyridine-3-carboxamide]
pIC50 (AXL): ≥ 7.00
pIC50 (Met): ≥ 7.00

COc1cc2nccc(Oc3ccc(NC(=O)c4ccc(C)n(-c5ccc(F)cn5)c4=O)cc3F)c2nc1OC [Compound 43, N-[4-[(6,7-Dimethoxy-1,5-naphthyridin-4-yl)oxy]-3-fluorophenyl]-1-(5-fluoropyridin-2-yl)-6-methyl-2-oxopyridine-3-carboxamide]
pIC50 (AXL): ≥ 7.00
pIC50 (Met): ≥ 7.00

COc1cc2nccc(Oc3ccc(NC(=O)c4cnc(C)c(-c5cccs5)c4O)cc3)c2nc1OC [Compound 256, N-[4-[(6,7-Dimethoxy-1,5-naphthyridin-4-yl)oxy]phenyl]-4-hydroxy-6-methyl-5-thiophen-2-ylpyridine-3-carboxamide]
pIC50 (AXL): ≥ 7.00
pIC50 (Met): ≥ 7.00

Cc1ccc(C(=O)Nc2ccc(Oc3ccnc4cnc(Cl)cc34)c(F)c2)c(=O)n1-c1ccc(F)cn1 [Compound 54A, N-[4-[(6-Chloro-1,7-naphthyridin-4-yl)oxy]-3-fluorophenyl]-1-(5-fluoropyridin-2-yl)-6-methyl-2-oxopyridine-3-carboxamide]
pIC50 (AXL): 6.52 to 7.00
pIC50 (Met): ≥ 7.00

COc1cc2nccc(Oc3ccc(NC(=O)c4cnc(C)c(-c5ccc(F)cn5)c4O)cc3F)c2nc1OC [Compound 85, N-[4-[(6,7-Dimethoxy-1,5-naphthyridin-4-yl)oxy]-3-fluorophenyl]-5-(5-fluoropyridin-2-yl)-4-hydroxy-6-methylpyridine-3-carboxamide]
pIC50 (AXL): ≥ 7.00
pIC50 (Met): ≥ 7.00

COCCOc1cc2nccc(Oc3ccc(NC(=O)c4c(C)n(C)c(C)c(-c5cc6ccccc6o5)c4=O)cc3F)c2nc1OC [Compound 263, 5-(1-Benzofuran-2-yl)-N-[3-fluoro-4-[[6-methoxy-7-(2-methoxyethoxy)-1,5-naphthyridin-4-yl]oxy]phenyl]-1,2,6-trimethyl-4-oxopyridine-3-carboxamide]
pIC50 (AXL): ≥ 7.00
pIC50 (Met): 6.00 to 6.52

COc1cnc2c(Oc3ccc(NC(=O)c4ccc(C)n(-c5ncc(F)cc5C)c4=O)cc3F)ccnc2c1 [Compound 52, N-[3-Fluoro-4-[(7-methoxy-1,5-naphthyridin-4-yl)oxy]phenyl]-1-(5-fluoro-3-methylpyridin-2-yl)-6-methyl-2-oxopyridine-3-carboxamide]
pIC50 (AXL): ≥ 7.00
pIC50 (Met): ≥ 7.00

COc1cnc2c(Oc3ccc(NC(=O)c4c(C)nc(C)c(-c5ccc(F)cn5)c4O)cc3F)ccnc2c1 [Compound 217, N-[3-Fluoro-4-[(7-methoxy-1,5-naphthyridin-4-yl)oxy]phenyl]-5-(5-fluoropyridin-2-yl)-4-hydroxy-2,6-dimethylpyridine-3-carboxamide]
pIC50 (AXL): ≥ 7.00
pIC50 (Met): ≥ 7.00

COc1cc2nccc(Oc3ccc(NC(=O)c4nccn(-c5ccc(F)cn5)c4=O)cc3F)c2nc1OC [Compound 246, N-[4-[(6,7Dimethoxy-1,5-naphthyridin-4-yl)oxy]-3-fluorophenyl]-4-(5-fluoropyridin-2-yl)-3-oxopyrazine-2-carboxamide]
pIC50 (AXL): ≥ 7.00
pIC50 (Met): ≥ 7.00

COc1cc2nccc(Oc3ccc(NC(=O)c4c(C)ccn(-c5ccc(F)cn5)c4=O)cc3F)c2nc1OC [Compound 41, N-[4-[(6,7-Dimethoxy-1,5-naphthyridin-4-yl)oxy]-3-fluorophenyl]-1-(5-fluoropyridin-2-yl)-4-methyl-2-oxopyridine-3-carboxamide]
pIC50 (AXL): ≥ 7.00
pIC50 (Met): ≥ 7.00

COc1cc2nccc(Oc3ccc(NC(=O)c4cnc(C)c(-c5ccco5)c4O)cc3F)c2cc1OC [Compound 259, N-[4-(6,7-Dimethoxyquinolin-4-yl)oxy-3-fluorophenyl]-5-(furan-2-yl)-4-hydroxy-6-methylpyridine-3-carboxamide]
pIC50 (AXL): ≥ 7.00
pIC50 (Met): ≥ 7.00

COc1cc2c(Oc3ccc(NC(=O)c4c(C)ncc(-c5ccccn5)c4O)cc3F)ccnc2cn1 [Compound 223, N-[3-Fluoro-4-[(6-methoxy-1,7-naphthyridin-4-yl)oxy]phenyl]-4-hydroxy-2-methyl-5-pyridin-2-ylpyridine-3-carboxamide]
pIC50 (AXL): ≥ 7.00
pIC50 (Met): ≥ 7.00
